Measured values published in US12447165B2, “Intratumoral vein-formation promoting agent” (OSAKA UNIVERSITY, priority 2016, dated 2025).

Assays:
LLC cells [1] = experiment: Various phosphatidylcholines: intratumoral lymphocyte infiltration, LLC cancer-bearing mice (Example 9); format: in vivo, mouse; settings: LLC tumor; PC 3 mg/kg i.v. once daily day 7 to 13; harvested day 14; CD4- and CD8-positive cells
Excerpt: The PCs of Group A were dioctanoyl phosphatidylcholine (Avanti POLAR LIPIDS), dimyristoyl phosphatidylcholine (Nippon Fine Chemical), distearoyl phosphatidylcholine (Nippon Fine Chemical), dioleoyl phosphatidylcholine (Nippon Fine Chemical) and dilinoleoyl phosphatidylcholine (Avanti POLAR LIPIDS). The PCs of Group B were (1-palmitoyl-2-myristoyl) phosphatidylcholine (Avanti POLAR LIPIDS) and (1-palmitoyl-2-oleoyl) phosphatidylcholine (Avanti POLAR LIPIDS).
In the same manner as in Example 1, LLC cells ([…] cells in 100 μL of PBS per animal) were subcutaneously injected into C57BL/6NCrSlc mice aged 8 weeks (females, SLC, Inc.) to generate cancer-bearing mice. For 7 consecutive days from day 7 to day 13 post-cancer cell inoculation, the PCs indicated above were administered at a dose of 3 mg/kg (100 μL) once daily via the mouse tail vein. The vehicle was administered to the mice of the control group. On the day following the final administration (day 14 post-inoculation), the tumors were harvested from the mice. In the same manner as in Example 1, tumor tissue sections were prepared, tumor vasculature was observed, and intratumoral lymphocyte infiltration was examined.

[2] = test system: human umbilical vein endothelial cells (HUVECs); experiment: Tubulogenesis of cultured HUVECs on Matrigel with VEGF (Examples 13 and 14); format: cell-based; settings: HUVEC on Matrigel, Example 14
Experimental: Each well of a 48-well plate was coated with 200 μL of Matrigel (BD biosciences), and human umbilical vein endothelial cells (HUVECs; Kurabo Industries Ltd.) were seeded at 5×10^4 cells/200 μL/well and cultured. For the culture, HuMedia-EB2 medium (Kurabo Industries, Ltd.) supplemented with 1% FCS was used. VEGF (recombinant human VEGF165, Peprotech) was added at a final concentration of 10 ng/mL to the culture medium to induce tubulogenesis of the vascular endothelial cells. Soybean PC was also added at 10 μM concomitantly with VEGF. At 12 to 16 hours after the start of the culture, the cells were photographed under a microscope. In addition, Hoechst (Boehringer Ingelheim) was added to stain cell nuclei, and newly formed blood vessels were observed. The wells not containing the soybean PC were used as a control.
The same experiment as in Example 12 was performed using soybean PC and other 8 types of PCs. The PCs were classified as Group A or B as with Example 8. The PCs used were as follows (see Table 2).

LLC cells [3] = experiment: Tumor volume, combination of soybean PC and 5-FU, LLC cancer-bearing mice (Example 12); format: in vivo, mouse; settings: soybean PC 3 mg/kg i.v. daily day 7 to 20, 5-FU 20 mg/kg i.p. day 7 and 14, volume to day 21
Experimental: LLC cells (1×10^6 cells in 100 μL of PBS per animal) were subcutaneously injected into C57BL/6NCrSlc mice aged 8 weeks (females, SLC, Inc.) to generate cancer-bearing mice. The mice were assigned to 4 groups: a soybean PC group, a 5-FU group, a soybean PC plus 5-FU group, and a control group (vehicle administration group) (3 animals per group). For the soybean PC group and the soybean PC plus 5-FU group, in the same manner as in Example 1, 3 mg/kg (100 μL) of the soybean PC was administered once daily via the mouse tail vein for […] from day 7 to day 20 post-cancer cell inoculation. For the 5-FU group and the soybean PC plus 5-FU group, 5-FU (Kyowa Hakko Kirin Co., Ltd.) was intraperitoneally administered at a dose of 20 mg/kg on day 7 and day 14 post-cancer cell inoculation. Tumor volume was measured on day 7, day 14 and day 21 post-cancer cell inoculation. The tumor volume was calculated by the following formula: length×width×height×0.5.

intratumoral vessels = experiment: Phosphatidylcholine administration to lysophosphatidic acid receptor 4-deficient mice; format: in vivo, mouse
Excerpt: Lysophosphatidic acid is enzymatically synthesized from lysophosphatidylcholine, which is produced by enzymatic decomposition of phosphatidylcholine. Considering this, there was a possibility that the newly discovered effects of phosphatidylcholine might be underlain by the mechanism that the administered phosphatidylcholine undergoes in vivo decomposition into lysophosphatidic acid, which activates a lysophosphatidic acid receptor and thereby produces the effects. However, the structural improvement of intratumoral vessels and the promotion of immune cell infiltration after phosphatidylcholine administration were not observed after lysophosphatidyicholine administration (see Reference Example 1). […] Therefore, the effects of phosphatidylcholine were proven not to be mediated by a lysophosphatidic acid receptor.

## CCCCCCCCCCCCCC(=O)OC[C@H](COP(=O)([O-])OCC[N+](C)(C)C)OC(=O)CCCCCCCCCCCCC [Dimyristoyl phosphatidylcholine, dimyristoyl phosphatidylcholine]
LLC cells [1]
  Lymphocyte Infiltration: yes
[2]
  Vein-like morphological change: yes

## CCCCC/C=C\C/C=C\CCCCCCCC(=O)OC[C@H](COP(=O)([O-])OCC[N+](C)(C)C)OC(=O)CCCCCCC/C=C\C/C=C\CCCCC [Dilinoleoyl phosphatidylcholine, dilinoleoyl phosphatidylcholine]
LLC cells [1]
  Lymphocyte Infiltration: yes
[2]
  Vein-like morphological change: yes

## CCCCCCCC(=O)OCC(COP(=O)([O-])OCC[N+](C)(C)C)OC(=O)CCCCCCC (stereo not drawn) [Dioctanoyl phosphatidylcholine, dioctanoyl phosphatidylcholine]
LLC cells [1]
  Lymphocyte Infiltration: yes
[2]
  Vein-like morphological change: yes

## O=c1[nH]cc(F)c(=O)[nH]1 [5-FU]
LLC cells [3]
  tumor volume (tumor growth) as compared with the control group: tumor growth inhibition

## CCCCCCCC/C=C\CCCCCCCC(=O)OC[C@H](COP(=O)([O-])OCC[N+](C)(C)C)OC(=O)CCCCCCC/C=C\CCCCCCCC [Dioleoyl phosphatidylcholine, dioleoyl phosphatidylcholine]
LLC cells [1]
  Lymphocyte Infiltration: yes
[2]
  Vein-like morphological change: yes

## CCCCCCCC/C=C\CCCCCCCC(=O)O[C@H](COC(=O)CCCCCCCCCCCCCCC)COP(=O)([O-])OCC[N+](C)(C)C [(1-palmitoyl-2-oleoyl) phosphatidylcholine]
LLC cells [1]
  Lymphocyte Infiltration: yes
[2]
  Vein-like morphological change: yes

## CCCCCCCCCCCCCCCCCC(=O)OC[C@H](COP(=O)([O-])OCC[N+](C)(C)C)OC(=O)CCCCCCCCCCCCCCCCC [Distearoyl phosphatidylcholine, distearoyl phosphatidylcholine]
LLC cells [1]
  Lymphocyte Infiltration: yes
[2]
  Vein-like morphological change: yes

## phosphatidylcholine
Intratumoral vessels
  immune cell infiltration: promoted immune cell infiltration
  structure of intratumoral vessels: improved the structure of intratumoral vessels

## CC/C=C\C/C=C\C/C=C\C/C=C\C/C=C\C/C=C\CCC(=O)OC[C@H](COP(=O)([O-])OCC[N+](C)(C)C)OC(=O)CC/C=C\C/C=C\C/C=C\C/C=C\C/C=C\C/C=C\CC [Didocosahexaenoyl phosphatidylcholine, didocosahexaenoyl phosphatidylcholine]
[2]
  Vein-like morphological change: yes

## CCCCCCCCCCCCCCCC(=O)OC[C@H](COP(=O)([O-])OCC[N+](C)(C)C)OC(=O)CCCCCCCCCCCCC [(1-palmitoyl-2-myristoyl) phosphatidylcholine]
LLC cells [1]
  Lymphocyte Infiltration: yes
[2]
  Vein-like morphological change: yes
